≈ marks a conversion by molar mass, not a printed value. Read-outs that look alike come from different tables or passages of the source.
Tests used:
[1] = Caco-2 Assay (Papp A to B); conditions: human, Caco-2, pH 7.4
Experimental: The degree of bi-directional human intestinal permeability for compounds was estimated using a Caco-2 cell permeability assay. Caco-2 cells were seeded onto polyethylene membranes in 96-well plates. The growth medium was refreshed every 4 to 5 days until cells formed a confluent cell monolayer. HBSS with 10 mM HEPES at pH 7.4 was used as the transport buffer. Compounds were tested at 2 μM bi-directionally in duplicate. Digoxin, nadolol and metoprolol were included as standards. Digoxin was tested at 10 μM bi-directionally in duplicate, while nadolol and metoprolol were tested at 2 μM in the A to B direction in duplicate. The final DMSO concentration was adjusted to less than 1% for all experiments. The plate was incubated for 2 hours in a CO2 incubator at 37° C., with 5% CO2 at saturated humidity. After incubation, all wells were mixed with acetonitrile containing an internal standard, and the plate was centrifuged at 4,000 rpm for 10 minutes. 100 μL supernatant was collected from each well and diluted with 100 μL distilled water for LC/MS/MS analysis. Concentrations of test and control compounds in starting solution, donor solution, and receiver solution were quantified by LC/MS/MS, using peak area ratio of analyte/internal standard. The apparent permeability coefficient Papp (cm/s) was calculated using the equation: Papp=(dCr/dt)×Vr/(A×C0) Where dCr/dt is the cumulative concentration of compound in the receiver chamber as a function of time (μM/s); Vr is the solution volume in the receiver chamber (0.075 mL on the apical side, 0.25 mL on the basolateral side); A is the surface area for the transport, which is 0.0804 cm^2 for the area of the monolayer; C0 is the initial concentration in the donor chamber (μM).

CDK4 = CDK4 (Homo sapiens (Human), UniProt P11802); assay: Cdk4 and 6 Enzymatic Inhibition Assay (radiometric 33PanQinase, Ki determination); type: biochemical
Procedure, shortened: (§1)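 Compounds tested at ten concentrations spanning 2×10^−6 to 6×10^−11 M (final DMSO 1%). Kinase and substrate reacted with [γ-33P]-ATP in HEPES-NaOH pH 7.5 containing Mg2+/Mn2+, orthovanadate and DTT for 60 min at 30° C; incorporated 33Pi measured by microplate scintillation counting.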

CDK6 = CDK6 (Homo sapiens (Human), UniProt Q00534); assay: as above; type: biochemical
Procedure, shortened: as §1

[2] = Measurement of Compound Metabolic Stability in hepatocytes
Experimental: The metabolic stability of compounds was determined in hepatocytes from mice and rats. Compounds were diluted to 5 μM in Williams' Medium E from 10 mM stock solutions. 10 μL of each compound was aliquoted into a well of a 96-well plate and reactions were started by aliquoting 40 μL of a 625,000 cells/mL suspension into each well. The plate was incubated at 37° C. with 5% CO2. At each corresponding time point, the reaction was stopped by quenching with ACN containing internal standards (IS) at a 1:3. Plates were shaken at 500 rpm for 10 min, and then centrifuged at 3,220×g for 20 minutes. Supernatants were transferred to another 96-well plate containing a dilution solution. Supernatants were analyzed by LC/MS/MS. Compound half-life was estimated using the following equation:

[3] = Compound Solubility Assay (kinetic solubility); type: physicochemical; conditions: kinetic from dmso stock
Experimental: The relative kinetic solubility of each compound was determined at both low (1.2) and neutral (7.4) pH. Compounds were prepared at 10 mM stocks. […] Compounds were allowed to shake at room temperature for 24 hours in 50 mM phosphate buffer pH 7.4, or in SGF buffer pH 1.2 at 37° C. for 24 hours.

[4] = system: drug-resistant cell lines of Table 2 (NCI-H1437, OV207, HCC1806, NCI-H2172); assay: Cell Line Growth Retardation Assay, resistant cohort; type: cell-based, human; conditions: Homo sapiens, […], geometric mean over resistant cohort; 6 days growth; read-out: AvgResIC50
Procedure, shortened: (§2)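 Growth over 6 days of compound exposure (0.0032–10 μM, five-fold steps) was scored by imaging cell counts at days 0 and 6, comparing population doublings with vehicle. Per-line IC50s from dose-response fits were averaged geometrically per cohort; therapeutic window is resistant/sensitive ratio.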

[5] = system: drug-sensitive cell lines of Table 2 (EFM-19, MDA-MB-453, T-47D, ZR-75-1, NCI-H441, OVTOKO, NCI-H1838); assay: Cell Line Growth Retardation Assay, sensitive cohort; type: cell-based, human; conditions: for IC50: Homo sapiens, geometric mean over sensitive cohort, 6 days growth, read-out: AvgSensIC50; for Ther Window: average IC50 drug-resistant group divided by average IC50 drug-sensitive group
Procedure, shortened: as §2

[6] = system: CYP isozymes (IC50s averaged over the isozymes); assay: CYP Enzymatic Inhibition Assay in human liver microsomes
Experimental: Inhibition of various CYP isozymes was measured for each compound using a CYP enzyme inhibition assay in human liver microsomes (HLM). Compounds and standard inhibitors were prepared at a 100× working solutions. Substrates or PBS were added to the corresponding wells followed by addition of compounds, solvent or positive control working solution to corresponding wells. HLMs were added to the pre-warmed (37° C.) plate and mixed with NADPH cofactor for 10 minutes at 37° C. The reaction was terminated by adding 400 μL cold stop solution (200 ng/mL Tolbutamide and 200 ng/mL Labetalol in ACN). The plate was centrifuged at 4,000 rpm for 20 minutes, and supernatant was transferred to 100 μL HPLC water followed by LC/MS/MS analysis.

hERG potassium channels = hERG potassium channels (Homo sapiens (Human), UniProt Q12809); assay: hERG Inhibition Assay (QPatch automated patch clamp, CHO cells); conditions: percent of control current
Experimental: Effects of compounds on hERG potassium channel conductance was assessed using the automated patch clamp method QPatch^HTX. Compounds were prepared at 10 mM stocks. CHO cells stably expressing hERG potassium channels were used for this assay. Cells were cultured in a humidified and air-controlled 5% CO2) incubator at 37° C. Compound stocks and the positive control Amitriptyline were dissolved in 100% DMSO to make various solution concentrations. These solutions were further diluted into extracellular solution to achieve final concentrations for testing. The final DMSO concentration in extracellular solution was 0.30%. The hERG QPatch^HTX assay was conducted at room temperature.
The following voltage command protocol was used: • From the holding potential of −80 mV, the voltage was first stepped to −50 mV for 80 ms for leak subtraction, and then stepped to +20 mV for 4,800 ms to open hERG channels. • After which, the voltage was stepped back down to −50 mV for 5,000 ms, causing a “rebound” or tail current, which was measured and collected for data analysis. • Finally, the voltage was stepped back to the holding potential of −80 mV for 3,100 ms.
For each experiment, three additions of 5 μL of the vehicle were applied, followed by 30 runs of the voltage command protocol for a baseline period. Then, the ascending doses of each compound were added with three repetitions (5 μL of compound each time).

[7] = 50 mM phosphate buffer, pH 7.4, aqueous buffer, read-out: KS7
[8] = simulated gastric fluid, kinetic solubility, SGF buffer pH 1.2, 37° C., 24 hours, read-out: KS1

Chain of CDK4 (P11802 whole entry): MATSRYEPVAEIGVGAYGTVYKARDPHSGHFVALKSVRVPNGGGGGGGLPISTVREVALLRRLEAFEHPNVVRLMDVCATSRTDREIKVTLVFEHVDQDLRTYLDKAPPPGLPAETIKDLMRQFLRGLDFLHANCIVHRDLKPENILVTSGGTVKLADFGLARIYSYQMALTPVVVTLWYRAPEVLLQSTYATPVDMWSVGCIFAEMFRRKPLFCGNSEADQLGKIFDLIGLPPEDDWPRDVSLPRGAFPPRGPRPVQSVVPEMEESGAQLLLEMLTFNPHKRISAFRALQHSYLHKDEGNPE
Chain of CDK4 (P24385 whole entry partner): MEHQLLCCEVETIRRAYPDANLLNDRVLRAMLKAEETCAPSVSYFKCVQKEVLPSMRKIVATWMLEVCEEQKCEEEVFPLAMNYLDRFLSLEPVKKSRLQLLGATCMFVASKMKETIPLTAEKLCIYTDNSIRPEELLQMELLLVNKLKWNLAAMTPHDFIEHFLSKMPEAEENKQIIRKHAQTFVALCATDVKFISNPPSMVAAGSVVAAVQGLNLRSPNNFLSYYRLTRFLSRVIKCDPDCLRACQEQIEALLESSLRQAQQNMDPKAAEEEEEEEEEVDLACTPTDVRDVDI
Chain of CDK6 (Q00534 whole entry): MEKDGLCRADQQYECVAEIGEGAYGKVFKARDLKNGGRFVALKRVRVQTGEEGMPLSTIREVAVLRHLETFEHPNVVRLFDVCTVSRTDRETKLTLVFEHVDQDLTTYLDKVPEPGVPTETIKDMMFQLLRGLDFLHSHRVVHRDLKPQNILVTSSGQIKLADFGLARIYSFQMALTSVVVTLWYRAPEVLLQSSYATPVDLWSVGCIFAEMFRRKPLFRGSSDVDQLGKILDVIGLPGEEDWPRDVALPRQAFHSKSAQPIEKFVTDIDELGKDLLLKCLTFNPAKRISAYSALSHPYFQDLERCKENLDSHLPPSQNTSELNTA
Chain of CDK6 (P24385 whole entry partner): as the sequence (P24385 whole entry partner) above
Chain of hERG potassium channels (Q12809 whole entry): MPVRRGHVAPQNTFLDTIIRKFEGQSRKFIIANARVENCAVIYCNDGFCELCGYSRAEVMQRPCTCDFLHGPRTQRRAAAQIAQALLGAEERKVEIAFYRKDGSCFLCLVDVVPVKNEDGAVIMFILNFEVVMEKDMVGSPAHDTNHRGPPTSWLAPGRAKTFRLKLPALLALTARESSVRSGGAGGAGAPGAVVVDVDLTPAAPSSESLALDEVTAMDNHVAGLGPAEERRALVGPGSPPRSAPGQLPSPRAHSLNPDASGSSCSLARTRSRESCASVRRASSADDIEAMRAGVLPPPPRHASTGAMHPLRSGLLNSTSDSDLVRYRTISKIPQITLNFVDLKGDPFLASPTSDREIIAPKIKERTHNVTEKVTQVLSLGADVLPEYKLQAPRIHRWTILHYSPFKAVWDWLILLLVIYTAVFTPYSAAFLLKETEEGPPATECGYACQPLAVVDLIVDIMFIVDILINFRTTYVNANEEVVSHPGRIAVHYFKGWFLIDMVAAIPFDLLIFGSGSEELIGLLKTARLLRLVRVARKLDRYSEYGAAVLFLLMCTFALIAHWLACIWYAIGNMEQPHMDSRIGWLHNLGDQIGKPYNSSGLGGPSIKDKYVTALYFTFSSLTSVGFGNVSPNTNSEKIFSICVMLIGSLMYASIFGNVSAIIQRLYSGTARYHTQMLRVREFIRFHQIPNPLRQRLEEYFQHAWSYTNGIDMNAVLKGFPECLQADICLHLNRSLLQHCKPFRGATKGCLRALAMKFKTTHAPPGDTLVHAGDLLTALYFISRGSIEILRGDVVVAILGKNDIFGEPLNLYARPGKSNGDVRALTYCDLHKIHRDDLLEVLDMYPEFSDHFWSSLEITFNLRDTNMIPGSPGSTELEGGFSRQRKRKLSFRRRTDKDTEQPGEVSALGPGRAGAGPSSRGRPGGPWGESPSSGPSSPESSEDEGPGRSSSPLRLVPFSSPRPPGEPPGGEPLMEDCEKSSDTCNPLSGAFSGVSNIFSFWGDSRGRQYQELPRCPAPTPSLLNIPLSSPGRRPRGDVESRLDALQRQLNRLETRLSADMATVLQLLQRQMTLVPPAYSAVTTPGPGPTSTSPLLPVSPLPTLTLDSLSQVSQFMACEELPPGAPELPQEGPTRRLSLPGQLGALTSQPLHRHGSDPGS

SMILES	Papp A→B at 2 h, 2 μM [1] [×10⁻⁶ cm/s]	Ki (CDK4) [µM]	Ki (CDK6) [µM]	half-life at 1 μM [2] [min]	solubility kinetic at 24 h [3, 7] [µM]	solubility kinetic at 24 h [3, 8] [µM]	IC50 [4] [µM]	IC50 [5] [µM]	IC50 at 10 min [6] [µM]	Ther Window [5]	hERG (hERG potassium channels) [%]
Cc1nc2c(F)cc(-c3nc(Nc4ccc(CN5CCO[C@@](C)(C[C@@H](C)N(C)C)C5)cn4)ncc3F)cc2n1C(C)C [Compound A28, N-(5-(((S)-2-((R)-2-(dimethylamino)propyl)-2-methylmorpholino)methyl)pyridin-2-yl)-5-fluoro-4-(4-fluoro-1-isopropyl-2-methyl-1H-benzo[d]imidazol-6-yl)pyrimidin-2-amine methanesulfonate]	0.09	0.00046	0.0026	55.2	15.8	200	0.39	0.07	94	5.23	6.78
COC(=O)N1CC[C@]2(CN(Cc3ccc(Nc4ncc(F)c(-c5cc(F)c6nc(C)n(C(C)C)c6c5)n4)nc3)CCO2)C1 [Compound A30, methyl (S)-9-((6-((5-fluoro-4-(4-fluoro-1-isopropyl-2-methyl-1H-benzo[d]imidazol-6-yl)pyrimidin-2-yl)amino)pyridin-3-yl)methyl)-6-oxa-2,9-diazaspiro[4.5]decane-2-carboxylate]	4.6	0.00295	0.0165	4.99	2.52 (≈ 1.49 µg/mL)	200 (≈ 119 µg/mL)	0.99	0.11	30	9.41	15.21
Cc1nc2c(F)cc(-c3nc(Nc4ccc(CN5CCO[C@]6(CCN(S(C)(=O)=O)C6)C5)cn4)ncc3F)cc2n1C(C)C [Compound A32]	1.08	0.00307	0.0174	4.24	1.6 (≈ 0.98 µg/mL)	200 (≈ 123 µg/mL)	1	0.16	31.5	6.24	14.35
Cc1nc2c(F)cc(-c3nc(Nc4ccc(CN5CCO[C@]6(CCN(C)C6)C5)cn4)ncc3F)cc2n1C(C)C [Compound A38]	0.17	0.00147	0.00723	38.2	40.5 (≈ 22.2 µg/mL)	200 (≈ 110 µg/mL)	0.84	0.22	80.2	3.81	10.65
Cc1nc2c(F)cc(-c3nc(Nc4ccc(CN5CCN(C)C(C)(C)C5)cn4)ncc3F)cc2n1C(C)C [Compound A43, 5-fluoro-4-(4-fluoro-1-isopropyl-2-methyl-1H-benzo[d]imidazol-6-yl)-N-(5-((3,3,4-trimethylpiperazin-1-yl)methyl)pyridin-2-yl)pyrimidin-2-amine]	0.27	0.00077	0.00413	24.2	8.37 (≈ 4.36 µg/mL)	200 (≈ 104 µg/mL)	1	0.07	90.6	15.03	12.12
Cc1nc2c(F)cc(-c3nc(Nc4ccc(CN5CCO[C@@](C)(CCO)C5)cn4)ncc3F)cc2n1C(C)C [Compound A50, (S)-2-(4-((6-((5-fluoro-4-(4-fluoro-1-isopropyl-2-methyl-1H-benzo[d]imidazol-6-yl)pyrimidin-2-yl)amino)pyridin-3-yl)methyl)-2-methylmorpholin-2-yl)ethan-1-ol]	3.25	0.00078	0.00532	17.5	1.13 (≈ 0.608 µg/mL)	200 (≈ 108 µg/mL)	0.73	0.07	35	9.87	18.96
Cc1nc2c(F)cc(-c3nc(Nc4ccc(CN5CCO[C@](C)(CC(=O)N(C)C)C5)cn4)ncc3F)cc2n1C(C)C [Compound A55, (R)-2-(4-((6-((5-fluoro-4-(4-fluoro-1-isopropyl-2-methyl-1H-benzo[d]imidazol-6-yl)pyrimidin-2-yl)amino)pyridin-3-yl)methyl)-2-methylmorpholin-2-yl)-N,N-dimethylacetamide]	0.11	0.0016	0.0119	5.4	–	196 (≈ 113 µg/mL)	0.9	0.21	20.1	4.33	26.03

More lines, in order of falling Ki (CDK4), values ahead:

Papp A→B at 2 h, 2 μM [1] [×10⁻⁶ cm/s]	Ki (CDK4) [µM]	Ki (CDK6) [µM]	half-life at 1 μM [2] [min]	solubility kinetic at 24 h [3, 7] [µM]	solubility kinetic at 24 h [3, 8] [µM]	IC50 [4] [µM]	IC50 [5] [µM]	IC50 at 10 min [6] [µM]	SMILES	Ther Window [5]	hERG (hERG potassium channels) [%]
3.94	0.00342	0.0201	4.73	2.02 (≈ 1.2 µg/mL)	200 (≈ 119 µg/mL)	1	0.15	18.7	COC(=O)N1CC[C@@]2(CN(Cc3ccc(Nc4ncc(F)c(-c5cc(F)c6nc(C)n(C(C)C)c6c5)n4)nc3)CCO2)C1 [Compound A33]	6.51	18.72
0.59	0.00191	0.0108	30.8	3.28 (≈ 1.89 µg/mL)	200 (≈ 115 µg/mL)	0.91	0.25	23.4	CC(=O)N1CC[C@@]2(CN(Cc3ccc(Nc4ncc(F)c(-c5cc(F)c6nc(C)n(C(C)C)c6c5)n4)nc3)CCO2)C1 [Compound A36]	3.57	21.60
0.85	0.00171	0.0102	5.65	3.09 (≈ 1.89 µg/mL)	200 (≈ 123 µg/mL)	0.96	0.14	12.8	Cc1nc2c(F)cc(-c3nc(Nc4ccc(CN5CCO[C@@]6(CCN(S(C)(=O)=O)C6)C5)cn4)ncc3F)cc2n1C(C)C [Compound A31, (S)-5-fluoro-4-(4-fluoro-1-isopropyl-2-methyl-1H-benzo[d]imidazol-6-yl)-N-(5-((2-(methylsulfonyl)-6-oxa-2,9-diazaspiro[4.5]decan-9-yl)methyl)pyridin-2-yl)pyrimidin-2-amine]	6.72	21.67
0.39	0.0016	0.00686	27	109 (≈ 62.9 µg/mL)	197 (≈ 114 µg/mL)	0.81	0.26	43.3	CC(=O)N1CC[C@]2(CN(Cc3ccc(Nc4ncc(F)c(-c5cc(F)c6nc(C)n(C(C)C)c6c5)n4)nc3)CCO2)C1 [Compound A37, (S)-1-(9-((6-((5-fluoro-4-(4-fluoro-1-isopropyl-2-methyl-1H-benzo[d]imidazol-6-yl)pyrimidin-2-yl)amino)pyridin-3-yl)methyl)-6-oxa-2,9-diazaspiro[4.5]decan-2-yl)ethan-1-one]	3.10	15.08
0.04	0.00101	0.00517	126	1 (≈ 0.535 µg/mL)	193 (≈ 103 µg/mL)	0.46	0.09	30	CCC[C@@]1(C)CN(Cc2ccc(Nc3ncc(F)c(-c4cc(F)c5nc(C)n(C(C)C)c5c4)n3)nc2)CCN1 [Compound A47, (S)-5-fluoro-4-(4-fluoro-1-isopropyl-2-methyl-1H-benzo[d]imidazol-6-yl)-N-(5-((3-methyl-3-propylpiperazin-1-yl)methyl)pyridin-2-yl)pyrimidin-2-amine]	4.96	21.76
0.01	0.0007	0.00304	81.2	6.3 (≈ 3.19 µg/mL)	200 (≈ 101 µg/mL)	0.96	0.09	64.2	Cc1nc2c(F)cc(-c3nc(Nc4ccc(CN5CCNC(C)(C)C5)cn4)ncc3F)cc2n1C(C)C [Compound A44, N-(5-((3,3-dimethylpiperazin-1-yl)methyl)pyridin-2-yl)-5-fluoro-4-(4-fluoro-1-isopropyl-2-methyl-1H-benzo[d]imidazol-6-yl)pyrimidin-2-amine]	10.25	10.84

Source: patent US12486280B2, “CDK inhibitors and uses thereof” (California Institute of Technology, priority 2018, dated 2025)
